Source: patent US20060228730A1, “Methods for identifying small molecules that bind specific RNA structural motifs” (priority 2001, published 2006)

Experiments:
[1] = tested on: HIV-1 TAR element TAR RNA oligonucleotide; assay: Gel retardation analysis using automated capillary electrophoresis, Tat peptide-TAR RNA; assay type: binding; settings: increasing concentrations of Tat peptide (0.1-1.6 μM), TK buffer, SCE9610 apparatus, FIG. 5
Protocol: FIG. 5. Gel retardation analysis to detect peptide-RNA interactions. In reactions containing increasing concentrations of Tat47-58 peptide (0.1 μM, 0.2 μM, 0.4 μM, 0.8 μM, 1.6 μM) 50 pmole TAR RNA oligonucleotide was added in TK buffer. The reaction mixture was then heated at 90° C. for 2 min and allowed to cool slowly to 24° C. The reactions were loaded onto a SCE9610 automated capillary electrophoresis apparatus (SpectruMedix; State College, Pennsylvania). The peaks correspond to the amount of free TAR RNA (“TAR”) or the Tat-TAR complex (“Tat-TAR”). The concentration of peptide added is indicated below each lane.
Tris-potassium chloride (TK) buffer is composed of 50 mM Tris-HCl pH 7.4, 20 mM KCl, 0.1% Triton X-100, and 0.5 mM MgCl2. Tris-borate-EDTA (TBE) buffer is composed of 45 mM Tris-borate pH 8.0, and 1 mM EDTA. Tris-Potassium chloride-magnesium (TKM) buffer is composed of 50 mM Tris-HCl pH 7.4, 20 mM KCl, 0.1% Triton X-100 and 5 mM MgCl2.
RNA oligonucleotides were purchased from Dharmacon, Inc. Lafayette, Colo.). 500 pmole of a 5′ fluorescein labeled oligonucleotide corresponding to the HIV-1 TAR element TAR RNA (5′-[…]-3′ (SEQ ID NO: 30); Huq et al., 1999, Nucleic Acids Research. 27:1084-1093; Hwang et al., 1999, Proc. Natl. Acad. Sci. USA 96:12997-13002) was used. […]

[2] = tested on: HIV-1 TAR element TAR RNA oligonucleotide; assay: Gel retardation analysis (gel mobility shift), Tat peptide-TAR RNA; assay type: binding; settings: Tat47-58 0.1-1.6 μM, 50 pmole TAR RNA, TK buffer, 12% non-denaturing polyacrylamide gel, FIG. 1
Protocol: FIG. 1. Gel retardation analysis to detect peptide-RNA interactions. In 20 μl reactions containing increasing concentrations of Tat47.58 peptide (0.1 μM, 0.2 μM, 0.4 μM, 0.8 μM, 1.6 μM) 50 pmole TAR RNA oligonucleotide was added in TK buffer. The reaction mixture was then heated at 90° C. for 2 min and allowed to cool slowly to 24° C. […] of 30% glycerol was added to each sample and applied to a 12% non-denaturing polyacrylamide gel. The gel was electrophoresed using 1200 volt-hours at 4° C. in TBE Buffer. Following electrophoresis, the gel was dried and the radioactivity was quantitated with a phosphorimager. The concentration of peptide added is indicated above each lane.
Tris-potassium chloride (TK) buffer is composed of 50 mM Tris-HC1 pH 7.4, 20 mM KCl, 0.1%Triton X-100, and 0.5 mM MgCl2. Tris-borate-EDTA (TBE) buffer is composed of 45 mM Tris-borate pH 8.0, and 1 mM EDTA. […]
RNA oligonucleotides were purchased from Dharmacon, Inc, Lafayette, Colo.). […] Then 10 μl of 30% glycerol was added to each reaction tube and the entire sample was loaded onto a TBE non-denaturing polyacrylamide gel and electrophoresed at 1200-1600 volt-hours at 4° C.; The gel was exposed to an intensifying screen and radioactivity was quantitated using a Typhoon phosporimager (Molecular Dynamics).

[3] = tested on: Rev / IIB (or RRE) region of HIV RNA; settings: Zapp et al., Cell, 1993; cited from earlier work
[4] = tested on: 60-mer from ribosomal RNA; settings: Cundliffe et al., 1990; cited from earlier work
[5] = tested on: HIV TAR RNA element oligonucleotide; assay: Gel mobility shift, specificity control with unrelated oligonucleotide; assay type: binding; settings: incubated with 10 μg/ml gentamicin, FIG. 3
Protocol: (§1) FIG. 3. The presence of 10 pg/ml gentamicin produces a gel mobility shift in the presence of the 16S rRNA oligonucleotide. 20 μl reactions containing increasing concentrations of gentamicin (100 ng/ml, 10 ng/ml, 1 ng/ml, 100 pg/ml, and 10 pg/ml) were added to 50 pmole RNA oligonucleotide in TKM buffer were treated as described for FIG. 2.
RNA oligonucleotides were purchased from Dharmacon, Inc, Lafayette, Colo.). 500 pmole of either a 5′ fluorescein labeled oligonucleotide corresponding to the 16S rRNA A site (5′-[…]-3′ (SEQ ID NO: 29); Moazed & Noller, 1987, Nature 327:389-394; Woodcock et al., 1991, EMBO J. 10:3099-3103; Yoshizawa et al., 1998, EMBO J. 17:6437-6448) or a 5′ fluorescein labeled oligonucleotide corresponding to the HIV-1 TAR element TAR RNA (5′-[…]-3′ (SEQ ID NO: 30); Huq et al., 1999, Nucleic Acids Research. 27:1084-1093; Hwang et al., 1999, Proc. Natl. Acad. Sci. USA 96:12997-13002) was 3′ labeled with 5-^32P cytidine 3′,5′-bis(phosphate) (NEN) and T4 RNA ligase (NEBiolabs) in 10% DMSO as per manufacturer's instructions. […] Then 10 μl of 30% glycerol was added to each reaction tube and the entire sample was loaded onto a TBE non-denaturing polyacrylamide gel and electrophoresed at 1200-1600 volt-hours at 4° C.; The gel was exposed to an intensifying screen and radioactivity was quantitated using a Typhoon phosporimager (Molecular Dynamics). […]

[6] = tested on: oligonucleotide corresponding to the 16S rRNA A site; assay: Gel retardation analysis (gel mobility shift), gentamicin-16S rRNA; assay type: binding
Protocol: FIG. 2. Gentamicin interacts with an oligonucleotide corresponding to the 16S rRNA. 20 μl reactions containing increasing concentrations of gentamicin (1 ng/ml, 10 ng/ml, 100 ng/ml, 1 μg/ml, 10 μg/ml, 50 μg/ml, 500 μg/ml) were added to 50 pmole RNA oligonucleotide in TKM buffer, heated at 90° C. for 2 min and allowed to cool slowly to 24° C. Then 10 μl of 30% glycerol was added to each sample and the samples were applied to a 13.5% non-denaturing polyacrylamide gel. The gel was electrophoresed using 1200 volt-hours at 4° C. in TBE Buffer Following electrophoresis, the gel was dried and the radioactivity was quantitated using a phosphorimager. The concentration of gentamicin added is indicated above each lane.
as §1
FIG. 4. Gentamicin binding to the 16S rRNA oligonucleotide is weak in the absence of MgCl2.
Tris-potassium chloride (TK) buffer is composed of 50 mM Tris-HC1 pH 7.4, 20 mM KCl, 0.1%Triton X-100, and 0.5 mM MgCl2. Tris-borate-EDTA (TBE) buffer is composed of 45 mM Tris-borate pH 8.0, and 1 mM EDTA. Tris-Potassium chloride-magnesium (TKM) buffer is composed of 50 mM Tris-HCl pH 7.4, 20 mM KCl, 0.1% Triton X-100 and 5 mM MgCl2.
RNA oligonucleotides were purchased from Dharmacon, Inc, Lafayette, Colo.). 500 pmole of either a 5′ fluorescein labeled oligonucleotide corresponding to the 16S rRNA A site (5′-[…]-3′ (SEQ ID NO: 29); Moazed & Noller, 1987, Nature 327:389-394; Woodcock et al., 1991, EMBO J. 10:3099-3103; Yoshizawa et al., 1998, EMBO J. 17:6437-6448) or a 5′ fluorescein labeled oligonucleotide corresponding to the HIV-1 TAR element TAR RNA (5′-[…]-3′ (SEQ ID NO: 30); Huq et al., 1999, Nucleic Acids Research. 27:1084-1093; Hwang et al., 1999, Proc. Natl. Acad. Sci. USA 96:12997-13002) was 3′ labeled with 5-^32P cytidine 3′,5′-bis(phosphate) (NEN) and T4 RNA ligase (NEBiolabs) in 10% DMSO as per manufacturer's instructions. The labeled oligonucleotides were purified using G-25 Sephadex columns (Boehringer Mannheim). For Tat-TAR gel retardation reactions the method of Huq et al. (Nucleic Acids Research, 1999, 27:1084-1093) was utilized with TK buffer containing 0.5 mM MgCl2 and a 12-mer Tat peptide (YGRKKRRQRRRP (SEQ ID NO: 31); single letter amino acid code). For 16S rRNA-gentamicin reactions, the method of Huq et al. was used with TKM buffer. In 20 μl reaction volumes 50 pmoles of ^32P cytidine-labeled oligonucleotide and either gentamicin sulfate (Sigma) or the short Tat peptide (Tat47.58) in TK or TKM buffer were heated at 90° C. for 2 minutes and allow to cool to room temperature (approximately 24° C.) over 2 hours. Then 10 μl of 30% glycerol was added to each reaction tube and the entire sample was loaded onto a TBE non-denaturing polyacrylamide gel and electrophoresed at 1200-1600 volt-hours at 4° C.; The gel was exposed to an intensifying screen and radioactivity was quantitated using a Typhoon phosporimager (Molecular Dynamics).

## YGRKKRRQRRRP [Tat47.58 peptide]
[1]
  shift of TAR RNA peak in automated capillary electrophoresis: a clear shift is visible
[2]
  gel mobility shift of TAR RNA oligonucleotide in the presence of the Tat peptide: a clear shift is visible

## NC[C@@H]1O[C@H](O[C@H]2[C@@H](O)[C@H](O[C@@H]3[C@@H](O)[C@H](N)C[C@H](N)[C@H]3O[C@H]3O[C@H](CO)[C@@H](O)C[C@H]3N)O[C@@H]2CO)[C@H](N)[C@@H](O)[C@@H]1O[C@H]1O[C@H](CO)[C@@H](O)[C@H](O)[C@@H]1O [lividomycin A]
[3]
  blocking of the binding of Rev to its viral recognition element in the IIB (or RRE) region of HIV RNA: can block the binding

## NC[C@H]1O[C@H](O[C@H]2[C@H](O)[C@@H](O[C@H]3O[C@H](CO)[C@@H](O)[C@H](N)[C@H]3O)[C@H](N)C[C@@H]2N)[C@H](N)C[C@@H]1O [tobramycin]
[3]
  blocking of the binding of Rev to its viral recognition element in the IIB (or RRE) region of HIV RNA: can block the binding

## thiostreptone
[4]
  binding to a 60-mer from ribosomal RNA: binds tightly

## NC[C@@H]1O[C@H](O[C@H]2[C@@H](O)[C@H](O[C@@H]3[C@@H](O)[C@H](N)C[C@H](N)[C@H]3O[C@H]3O[C@H](CN)[C@@H](O)[C@H](O)[C@H]3N)O[C@@H]2CO)[C@H](N)[C@@H](O)[C@@H]1O [neomycin B]
[3]
  blocking of the binding of Rev to its viral recognition element in the IIB (or RRE) region of HIV RNA: can block the binding

## gentamicin
[5]
  gel mobility shift of unrelated oligonucleotide (HIV TAR RNA element): does not result in a gel mobility shift
[6]; TKM buffer (5 mM MgCl2), FIG. 2
  gentamicin concentration as low as which produces the mobility shift: 10 ng/mL
[6]; TKM buffer, concentrations ranged from 100 ng/ml to 10 pg/ml, FIG. 3
  gentamicin concentration as low as which gel mobility shifts are produced: 10 pg/mL
[6]; buffer does not contain MgCl2, FIG. 4 legend
  gentamicin binding to the 16S rRNA oligonucleotide in the absence of MgCl2: weak
[6]; gentamicin added after the renaturation step proceeded to 75° C.
  mobility shift when gentamicin is added after renaturation has proceeded to 75° C.: a mobility shift is not produced
[6]; gentamicin present during the entire denaturation/renaturation cycle, data not shown
  gel shift when gentamicin is added at 90° C. or 85° C.: a gel shift is visualized
[6]; no MgCl2 in buffer, FIG. 4
  gentamicin concentration that must be added to produce a gel shift when MgCl2 is not present: 1 mg/mL
[6]; varying concentrations of gentamicin (1 ng/ml-500 μg/ml), TKM buffer, 13.5% non-denaturing gel, FIG. 2
  mobility shift of RNA oligonucleotide corresponding to the 16S rRNA A site: produces a mobility shift
